Test results from patent US10800772B2 (Gilead Sciences, Inc., priority 2016, dated 2020).
Read-outs that look alike come from different tables or passages of the source.

What was measured:
Assay type in all cases: cell-based, HIV-1
[1] = system: HIV-IIIb IN T174I BT; test: Antiviral assay in MT4 cells, HIV-IIIb IN T174I BT virus (from viral breakthrough)
In short: (§1)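 HIV-IIIb at 0.004 m.o.i., 3 h pre-infection of MT4 cells at 37 °C; 2000 cells/well in RPMI 1640 + 10% FBS with 3-fold compound dilutions, 10 conc., quadruplicate. 5-day incubation, CellTiter-Glo readout. EC50 = 50% luminescence decrease.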

[2] = system: HIV-IIIb IN T174I DE; test: Antiviral assay in MT4 cells, HIV-IIIb IN T174I DE virus (from dose escalation passaging)
In short: as §1

[3] = system: HIV-IIIb (wildtype); test: Antiviral assay in MT4 cells, HIV-IIIb wildtype; details: read-out: WT EC50
In short: as §1

[4] = Human immunodeficiency virus 1, IIIB, MT4, 120 h, read-out: T174I BT EC50, MT4 cells, HIV-IIIb IN T174I BT (viral breakthrough), 5 days, CellTiter-Glo
[5] = Human immunodeficiency virus 1, IIIB, MT4, 120 h, read-out: T174I DE EC50, MT4 cells, HIV-IIIb IN T174I DE (dose escalation), 5 days, CellTiter-Glo
[6] = Human immunodeficiency virus 1, IIIB, MT4, 120 h

SMILES	EC50 [1, 4] [nM]	EC50 [2, 5] [nM]	EC50 [3, 6] [nM]	EC50 ([1]; read-out: T174I BT EC50, MT4 cells, HIV-IIIb IN T174I BT (viral breakthrough), 5 days, CellTiter-Glo) [nM]	EC50 ([2]; read-out: T174I DE EC50, MT4 cells, HIV-IIIb IN T174I DE (dose escalation), 5 days, CellTiter-Glo) [nM]	EC50 ([3]; MT4 cells, HIV-IIIb wildtype, 5 days, CellTiter-Glo) [nM]
CC(=O)N1CC[C@H](N2CCC(c3nn(C)c4ccc(-c5nc6cc(C)c([C@H](OC(C)(C)C)C(=O)O)c(-c7ccc(Cl)cc7)c6s5)cc34)CC2)C1 [Compound 11, (S)-2-(2-(3-(1-((S)-1-acetylpyrrolidin-3-yl)piperidin-4-yl)-1-methyl-1H-indazol-5-yl)-7-(4-chlorophenyl)-5-methylbenzo[d]thiazol-6-yl)-2-(tert-butoxy)acetic Acid]	85	166	8			
Cc1cc2nc(-c3ccc4c(c3)c(N3CCC(N5CCC5)CC3)nn4C)sc2c(-c2ccc(Cl)cc2)c1[C@H](OC(C)(C)C)C(=O)O [Compound 136, (S)-2-(2-(3-(4-(azetidin-1-yl)piperidin-1-yl)-1-methyl-1H-indazol-5-yl)-7-(4-chlorophenyl)-5-methylbenzo[d]thiazol-6-yl)-2-(tert-butoxy) acetic acid]	857	1700	14			
CN[C@H]1CCN(c2nn(C)c3ccc(-c4nc5cc(C)c([C@H](OC(C)(C)C)C(=O)O)c(-c6ccc(Cl)cc6)c5s4)cc23)C1 [Compound 94, (S)-2-(tert-butoxy)-2-(7-(4-chlorophenyl)-5-methyl-2-(1-methyl-3-((S)-3-(methylamino)pyrrolidin-1-yl)-1H-indazol-5-yl)benzo[d]thiazol-6-yl)acetic acid]	2720	2520	38			
Cc1cc2nc(-c3ccc4c(c3)c(C3CN(C5COC5)C3)nn4C)sc2c(-c2ccc(Cl)cc2)c1[C@H](OC(C)(C)C)C(=O)O [Compound 59, (S)-2-(tert-butoxy)-2-(7-(4-chlorophenyl)-5-methyl-2-(1-methyl-3-(1-(oxetan-3-yl)azetidin-3-yl)-1H-indazol-5-yl)benzo[d]thiazol-6-yl)acetic acid]	883	1730	8			
CC(=O)N1CC(N2CCC(c3nn(CCN(C)C)c4ccc(-c5nc6cc(C)c([C@H](OC(C)(C)C)C(=O)O)c(-c7ccc(Cl)cc7)c6s5)cc34)CC2)C1 [Compound 33, (S)-2-(2-(3-(1-(1-acetylazetidin-3-yl)piperidin-4-yl)-1-(2-(dimethylamino)ethyl)-1H-indazol-5-yl)-7-(4-chlorophenyl)-5-methylbenzo[d]thiazol-6-yl)-2-(tert-butoxy)acetic acid]	587	1020	5			
Cc1cc2nc(-c3ccc4c(c3)c(C3=CCOCC3)nn4C)sc2c(-c2ccc(Cl)cc2)c1[C@H](OC(C)(C)C)C(=O)O [Compound 18, (S)-2-(tert-butoxy)-2-(7-(4-chlorophenyl)-2-(3-(3,6-dihydro-2H-pyran-4-yl)-1-methyl-1H-indazol-5-yl)-5-methylbenzo[d]thiazol-6-yl)acetic Acid]	2150	4500	14			
Cc1cc2nc(-c3ccc4c(c3)c(C3CCN([C@@H]5CCN(C)C5)CC3)nn4C)sc2c(-c2ccc(Cl)cc2)c1[C@H](OC(C)(C)C)C(=O)O [Compound 164, (S)-2-(tert-butoxy)-2-(7-(4-chloro-phenyl)-5-methyl-2-(1-methyl-3-(1-((R)-1-methyl-pyrrolidin-3-yl)piperidin-4-yl)-1H-indazol-5-yl)benzo[d]thiazol-6-yl)acetic acid]	184	183	15			
Cc1cc2nc(-c3ccc4c(c3)c(C3CCN(C5COC5)CC3)nn4C3CC3)sc2c(-c2ccc(Cl)cc2)c1[C@H](OC(C)(C)C)C(=O)O [Compound 38, (S)-2-(tert-butoxy)-2-(7-(4-chlorophenyl)-2-(1-cyclopropyl-3-(1-(oxetan-3-yl)piperidin-4-yl)-1H-indazol-5-yl)-5-methylbenzo[d]thiazol-6-yl)acetic acid]	293	349	8			
Cc1cc2nc(-c3cnc4c(c3)c(C3=CCN(C)CC3)cn4C)sc2c(-c2ccc(Cl)cc2)c1[C@H](OC(C)(C)C)C(=O)O [Compound 105, (S)-2-(tert-butoxy)-2-(7-(4-chlorophenyl)-5-methyl-2-(1-methyl-3-(1-methyl-1,2,3,6-tetrahydropyridin-4-yl)-1H-pyrrolo[2,3-b]pyridin-5-yl)benzo[d]thiazol-6-yl)acetic acid]	1460	2290	35			
CC(=O)N1CC(N2CCC(c3nn(C4CC4)c4ccc(-c5nc6cc(C)c([C@H](OC(C)(C)C)C(=O)O)c(-c7ccc(Cl)cc7)c6s5)cc34)CC2)C1 [Compound 45, (S)-2-(2-(3-(1-(1-acetylazetidin-3-yl)piperidin-4-yl)-1-cyclopropyl-1H-indazol-5-yl)-7-(4-chlorophenyl)-5-methylbenzo[d]thiazol-6-yl)-2-(tert-butoxy)acetic Acid]	174	287	17			
CCn1nc(C2CCN(C3COC3)CC2)c2nc(-c3nc4cc(C)c([C@H](OC(C)(C)C)C(=O)O)c(-c5ccc(Cl)cc5)c4s3)ccc21 [Compound 177, (S)-2-(tert-butoxy)-2-(7-(4-chloro-phenyl)-2-(1-ethyl-3-(1-(oxetan-3-yl)piperidin-4-yl)-1H-pyrazolo[4,3-b]pyridin-5-yl)-5-methylbenzo[d]thiazol-6-yl) acetic acid]	47	185	3			
Cc1cc2nc(-c3ccc4c(c3)c(C3CN(C(C)C)C3)nn4C)sc2c(-c2ccc(Cl)cc2)c1[C@H](OC(C)(C)C)C(=O)O [Compound 54, (S)-2-(tert-butoxy)-2-(7-(4-chlorophenyl)-2-(3-(1-isopropylazetidin-3-yl)-1-methyl-1H-indazol-5-yl)-5-methylbenzo[d]thiazol-6-yl)acetic acid]	1830	3290	6			
Cc1cc2nc(-c3cnc4c(n3)c(C3CCN(C5COC5)CC3)cn4C)sc2c(-c2ccc(Cl)cc2)c1[C@H](OC(C)(C)C)C(=O)O [Compound 16, (S)-2-(tert-butoxy)-2-(7-(4-chlorophenyl)-5-methyl-2-(5-methyl-7-(1-(oxetan-3-yl)piperidin-4-yl)-5H-pyrrolo[2,3-b]pyrazin-2-yl)benzo[d]thiazol-6-yl)acetic Acid]	104	603	2			
Cc1cc2nc(-c3ccc4c(c3)c(C3CCN(C5CN(C(=O)OC(C)(C)C)C5)CC3)nn4C)sc2c(-c2ccc(Cl)cc2)c1[C@H](OC(C)(C)C)C(=O)O [Compound 28, (S)-2-(tert-butoxy)-2-(2-(3-(1-(1-(tert-butoxycarbonyl)azetidin-3-yl)piperidin-4-yl)-1-methyl-1H-indazol-5-yl)-7-(4-chlorophenyl)-5-methylbenzo[d]thiazol-6-yl)acetic Acid]	1800	2260	73			
Cc1cc2nc(-c3ccc4c(c3)c(N3CC(C)(C)NC3=O)nn4C)sc2c(-c2ccc(Cl)cc2)c1[C@H](OC(C)(C)C)C(=O)O [Compound 121, (S)-2-(tert-butoxy)-2-(7-(4-chlorophenyl)-2-(3-(4,4-dimethyl-2-oxoimidazolidin-1-yl)-1-methyl-1H-indazol-5-yl)-5-methylbenzo[d]thiazol-6-yl)acetic acid]	3480	2690	39			
COC(=O)N1CC[C@@H](N2CCC(c3nn(C)c4ccc(-c5nc6cc(C)c([C@H](OC(C)(C)C)C(=O)O)c(-c7ccc(Cl)cc7)c6s5)nc34)CC2)C1 [Compound 208, (S)-2-(tert-butoxy)-2-(7-(4-chloro-phenyl)-2-(3-(1-((R)-1-(methoxy-carbonyl)pyrrolidin-3-yl)piperidin-4-yl)-1-methyl-1H-pyrazolo[4,3-b]pyridin-5-yl)-5-methylbenzo[d]thiazol-6-yl) acetic acid]	54	206	2			
Cc1cc2nc(-c3ccc4c(c3)c(N3CC[C@H](N(C)C)C3)nn4C)sc2c(-c2ccc(Cl)cc2)c1[C@H](OC(C)(C)C)C(=O)O [Compound 93, (S)-2-(tert-butoxy)-2-(7-(4-chlorophenyl)-2-(3-((S)-3-(dimethylamino)pyrrolidin-1-yl)-1-methyl-1H-indazol-5-yl)-5-methylbenzo[d]thiazol-6-yl)acetic acid]	1010	3450	13			
COC(=O)N1CC(N2CCC(c3cn(C)c4ncc(-c5nc6cc(C)c([C@H](OC(C)(C)C)C(=O)O)c(-c7ccc(Cl)cc7)c6s5)cc34)CC2)C1 [Compound 203, (S)-2-(tert-butoxy)-2-(7-(4-chloro-phenyl)-2-(3-(1-(1-(methoxycarbonyl)azetidin-3-yl)piperidin-4-yl)-1-methyl-1H-pyrrolo[2,3-b]pyridin-5-yl)-5-methylbenzo[d]thiazol-6-yl) acetic acid]	215	702	11			
COCC(=O)N1CCC(c2nn(C)c3ccc(-c4nc5cc(C)c([C@H](OC(C)(C)C)C(=O)O)c(-c6ccc(Cl)cc6)c5s4)cc23)C1 (stereo partly drawn) [Compound 76, (S)-2-(tert-butoxy)-2-(7-(4-chlorophenyl)-2-(3-((S)-1-(2-methoxyacetyl)pyrrolidin-3-yl)-1-methyl-1H-indazol-5-yl)-5-methylbenzo[d]thiazol-6-yl)acetic acid]				510	906	16
